These results are taken from publication PMC12114840, “Exploring the Anticancer Properties of 1,2,3-Triazole-Substituted Andrographolide Derivatives” (Pharmaceuticals, 2025).

The structures appear in SMILES notation.

Common to all, as to type: cell-based, human
One experiment deals with PANC-1 cells. As to the kind of experiment: Annexin V-FITC/PI double-staining apoptosis assay. The note with it: 48 h. The text has this:
To further investigate the mechanism of action of the triazole derivative 12, an apoptosis analysis was subsequently performed in PANC-1 cells. The early stages of apoptosis are characterized by the disruption of membrane asymmetry and the translocation of phosphatidylserine from the inner to the outer leaflet of the plasma membrane, which can be detected using Annexin V-FITC, a protein with high affinity for phosphatidylserine. In the later stages of apoptosis, the cell membrane loses its integrity, allowing propidium iodide (PI) to penetrate into the cell. Thus, PANC-1 cells treated with compound 12 at 3 and 6 μM for 48 h were analyzed by flow cytometry after Annexin V-FITC and PI staining (Figure 1B, bottom panel; and Figure 1D). This analysis can distinguish and quantify viable cells (annexin V−, PI−), early apoptotic cells (annexin V+, PI−), late apoptotic cells (annexin V+, PI+), and necrotic cells (annexin V−/PI+). […] Cleavage of PARP-1 into an 89 kDa protein, cleaved PARP-1, occurs during programmed cell death (apoptosis) as a result of proteolytic processing by active caspase-3. Thus, cleaved PARP-1 is recognized as a marker of apoptosis.
The analyses were performed as described in the literature. In particular, 1.5 × 10^5 PANC-1 cells/well were seeded in 6-well plates and allowed to adhere overnight, followed by treatment with 3 µM and 6 µM of compound 12 for 48 h. For cell cycle analysis, cells were stained with propidium iodide (Sigma-Aldrich) and subjected to flow cytometry. Cell cycle phases were identified and quantified using the FlowJo X 10.0.7 software (Treestar, Ashland, OR, USA). For apoptosis analysis, cells were stained using the Annexin V-FITC Apoptosis Detection Kit I from BD Biosciences (Enzifarma, Porto, Portugal), according to the manufacturer’s instructions. The Accuri^TM C6 flow cytometer and the BD Accuri C6 software (BD Biosciences, Heidelberg, Germany) were used.

Experiment [1] deals with PANC-1 cells (pancreatic ductal adenocarcinoma). The experiment is described as follows: Sulforhodamine B (SRB) antiproliferative assay, PANC-1. As to the method: The antiproliferative properties of andrographolide and all prepared derivatives (2–26) were evaluated against a panel of different cancer cell lines, including human pancreatic ductal adenocarcinoma (PANC-1), colorectal adenocarcinoma (HCT116), melanoma (A375), breast adenocarcinoma (MCF-7) and a non-tumorigenic colon (CCD-18Co) cell line using the sulforhodamine B assay.
Human breast adenocarcinoma MCF-7, pancreatic ductal adenocarcinoma PANC-1, melanoma A375, and non-tumorigenic colon CCD-18Co cell lines were purchased from ATCC (Rockville, MD, USA). Human colorectal adenocarcinoma HCT116 cells were kindly provided by B. Vogelstein (The Johns Hopkins Kimmel Cancer Center, Baltimore, MD, USA). Tumor cells were routinely cultured in RPMI-1640 medium with UltraGlutamine from Biowest (VWR, Carnaxide, Portugal) supplemented with 10% fetal bovine serum (FBS) from Biowest (VWR, Carnaxide, Portugal), except for the PANC-1 cells, which were grown in DMEM (4.5 g/L glucose) with stable L-glutamine and sodium pyruvate and supplemented with 10% FBS. The non-tumorigenic CCD-18Co cells were cultured in EMEM (Lonza, VWR, Carnaxide, Portugal), supplemented with 10% FBS. All cells were incubated at 37 °C in a humidified atmosphere of 5% CO2. Routine mycoplasma testing was performed using the MycoAlert™ PLUS mycoplasma detection kit (Lonza).
For the evaluation of the compound effect on cell proliferation, human cell lines were seeded in 96-well plates at a density of 5.0 × 10^3 (HCT116, MCF-7, PANC-1, A375, and CCD-18Co) cells per well, for 24 h. Cells were then treated with serial dilutions of the compound (ranging from 0.63 to 30 µM), for an additional 48 h incubation period. The growth inhibitory effects were assessed by SRB assay, as described in [58], and the half-maximal inhibitory concentration (IC50 values) were determined for each cell line using the GraphPad Prism software version 7.0 (La Jolla, CA, USA). Culture medium containing a maximum of 0.05% dimethyl sulfoxide (DMSO) was used as negative control.
In general terms: The SRB assay estimates cell density from bound dye.

A further experiment deals with p21. As to the kind of experiment: Western blot, p21. The note with it: PANC-1, 3 and 6 μM, 48 h. As to the method: To elucidate the antiproliferative activity of compound 12, cell cycle analysis was performed in the PANC-1 cancer cell line. The cell cycle is a highly controlled process where cellular DNA is replicated and then equally partitioned in two daughter cells. The cell cycle is composed of two distinct phases: the interphase, where the cell grows and undergoes three distinct periods—the G1 (pre-DNA synthesis), S (DNA synthesis), and G2 (pre-division) phases—and mitosis, where cell undergoes division. The newly formed daughter cells then enter the preparatory phases of interphase, and start the G0 phase (quiescence). […] Thus, PANC-1 cells were treated with compound 12 at 3 and 6 µM for 48 h and then analyzed by flow cytometry (Figure 1B,C).
PANC-1 (1.5 × 10^5 cells/well) were seeded in six-well plates, allowed to adhere overnight, and treated with 3 µM and 6 µM of compound 12 for 48 h. Protein lysates were obtained in RIPA buffer with protease inhibitors (Sigma-Aldrich, Lisbon, Portugal) and quantified using Pierce® bicinchoninic acid (BCA) protein assay reagents (Thermo Fisher Scientific, Porto Salvo, Portugal). […] The signal was detected with enhanced chemiluminescence (ECL) (Amersham, GE Healthcare Life Sciences, Enzymatic, Portugal) using the ChemiDoc^TM MP Imaging system (BioRad Laboratories, Amadora, Portugal).
(In western blotting, separated proteins are transferred to a membrane and probed.)

The term IC50 denotes the concentration at which inhibition is half-maximal. A higher IC50 goes with weaker potency in that assay. By IC10 is commonly meant the concentration at which the effect reaches the 10% level. Low values mean an effect from little substance, high ones a need for much substance. With `C=C1CC[C@@H]2[C@](C)(COC(C)=O)[C@H](OC(C)=O)CC[C@@]2(C)[C@@H]1C[C@H](C1=CCOC1=O)n1cc(-c2ccc(Br)cc2)nn1` [Compound 12, (12R)-4-bromophenyl-1,2,3-triazole-3,19-diacetoxy-14-deoxy-andrographolide], the viability at 3 µM in the experiment with PANC-1 cells (Homo sapiens, PANC-1, 3 µM, read-out: viable cells (annexin-V−, PI−; Q4)) was 79.7%. Besides, the viability at 6 µM in the experiment with PANC-1 cells (Homo sapiens, PANC-1, 6 µM, read-out: viable cells (annexin-V−, PI−; Q4)) stood at 68.4%. Besides, in the experiment with PANC-1 cells (PANC-1, 3 µM), the “early apoptotic cells (annexin V+, PI−; Q3)” value is given as 7.08%; the “late apoptotic cells (annexin V+, PI+; Q2)” value was found to be 10.2%; the “percentage of apoptotic cells (Annexin V+)” value is 17.28%. Further, in the experiment with PANC-1 cells (PANC-1, 6 µM), the “early apoptotic cells (annexin V+, PI−; Q3)” value amounted to 13.3%; the “late apoptotic cells (annexin V+, PI+; Q2)” value came out at 13.5%; the “percentage of apoptotic cells (Annexin V+)” value is on record as 26.8%. In experiment [1] (Homo sapiens, PANC-1, 48 h, SRB, mean ± SEM of four to six independent experiments), the midpoint of inhibition, the IC50, lay at 3.4 ± 0.9 µM. Besides, the IC10 in experiment [1] (PANC-1, concentration which has no significant effect on cell proliferation) stood at 1.35 µM. The “expression of p21” value in the experiment with p21 is on record as “increased the expression of p21 in a dose-dependent manner”.
